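1) Cells in 96-well plates. 2) Compound, 48 h, 5 concentrations. 3) Linear interpolation between surrounding doses. 4) Unreached endpoint = highest concentration. Abbreviation: GI50, concentration required for 50% inhibition of growth.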 The source made the active and inactive calls. Rule as the data show it: active = GI50 up to about 1.1 µM and inactive = higher.
Assays:
Test in all cases: inhibition of tumour cell growth, NCI panel, 48 h
[1] = test system: 786-0
[2] = test system: A549
[3] = test system: ACHN
[4] = test system: BT-549
[5] = test system: CAKI-1
[6] = test system: CCRF-CEM
[7] = test system: COLO 205
[8] = test system: DU-145
[9] = test system: EKVX
[10] = test system: HCC 2998
[11] = test system: HCT-116
[12] = test system: HCT-15
[13] = test system: HOP-62
[14] = test system: HOP-92
[15] = test system: HT-29
[16] = test system: Hs-578T
[17] = test system: IGROV-1
[18] = test system: K562
[19] = test system: KM12
[20] = test system: LOX IMVI
[21] = test system: M14
[22] = test system: MDA-MB-231
[23] = test system: MDA-MB-435
[24] = test system: MDA-N
[25] = test system: MOLT-4
[26] = test system: Malme-3M
[27] = test system: NCI-H226
[28] = test system: NCI-H23
[29] = test system: NCI-H460
[30] = test system: NCI-H522
[31] = test system: OVCAR-3
[32] = test system: OVCAR-4
[33] = test system: OVCAR-5
[34] = test system: PC-3
[35] = test system: RPMI-8226
[36] = test system: SF-268
[37] = test system: SF-295
[38] = test system: SK-MEL-28
[39] = test system: SK-MEL-2
[40] = test system: SK-MEL-5
[41] = test system: SK-OV-3
[42] = test system: SN12C
[43] = test system: SNB-19
[44] = test system: SNB-75
[45] = test system: SR
[46] = test system: SW-620
[47] = test system: T47D
[48] = test system: TK-10
[49] = test system: U-251
[50] = test system: UACC-257
[51] = test system: UACC-62
[52] = test system: UO-31

Which results are given for `O=C(N/N=C(\c1ccccc1)c1ccccn1)NC1CCCCC1`?
GI50 [1]: 63.5 µM (inactive); GI50 [2]: 46.8 µM (inactive); GI50 [3]: 44.6 µM (inactive); GI50 [4]: 42.4 µM (inactive); GI50 [5]: 57 µM (inactive); GI50 [6]: 40.8 µM (inactive); GI50 [7]: 65 µM (inactive); GI50 [8]: 64.6 µM (inactive); GI50 [9]: 41.8 µM (inactive); GI50 [10]: 56.4 µM (inactive); GI50 [11]: 55.6 µM (inactive); GI50 [12]: 22.9 µM; GI50 [13]: 23.4 µM (inactive); GI50 [14]: 61.8 µM (inactive); GI50 [15]: 59.2 µM (inactive); GI50 [16]: > 100 µM (inactive); GI50 [17]: 30.6 µM (inactive); GI50 [18]: 5.46 µM (inactive); GI50 [19]: 59.3 µM (inactive); GI50 [20]: 19.4 µM (inactive); GI50 [21]: 30 µM (inactive); GI50 [22]: 27.7 µM (inactive); GI50 [23]: > 100 µM (inactive); GI50 [24]: > 100 µM (inactive); GI50 [25]: 41.1 µM (inactive); GI50 [26]: 38.6 µM (inactive); GI50 [27]: 41.1 µM (inactive); GI50 [28]: 47.9 µM (inactive); GI50 [29]: 48 µM (inactive); GI50 [30]: 47.4 µM (inactive); GI50 [31]: 39.6 µM (inactive); GI50 [32]: 22.7 µM (inactive); GI50 [33]: > 100 µM (inactive); GI50 [34]: 56.2 µM (inactive); GI50 [35]: 48.1 µM (inactive); GI50 [36]: 37.2 µM (inactive); GI50 [37]: 26.6 µM (inactive); GI50 [38]: > 100 µM (inactive); GI50 [39]: 82.4 µM (inactive); GI50 [40]: 40.1 µM (inactive); GI50 [41]: 45.5 µM (inactive); GI50 [42]: 56.5 µM (inactive); GI50 [43]: > 100 µM (inactive); GI50 [44]: > 100 µM (inactive); GI50 [45]: 72.6 µM (inactive); GI50 [46]: 76 µM (inactive); GI50 [47]: 28.6 µM (inactive); GI50 [48]: 26.9 µM (inactive); GI50 [49]: 51.1 µM (inactive); GI50 [50]: > 100 µM (inactive); GI50 [51]: 38.2 µM (inactive); GI50 [52]: 43.5 µM (inactive)

— ChEMBL document CHEMBL1201862, “PubChem BioAssay data set” (2004)
